Our source for the EC50 values is patent publication US11591341B2 (ALIGOS THERAPEUTICS, INC., priority 2019, dated 2023).

SMILES strings stand for the structures. Bounds are passed on as bounds.

The test system of this assay is HBV. The experiment in a line: HBV-DNA Antiviral Assay Using HepG2.117 Cells (intracellular HBV DNA by qPCR). The format is cell-based, hepatitis B virus (genotype D). Particulars: Hepatitis B virus, HepG2.117. Summed up:
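Endpoint: qPCR copy number of intracellular HBV DNA after 3-day compound exposure, with inhibition set relative to the 2% DMSO control. The cells were doxycycline-free HepG2.117 carrying a Tet-off genotype D genome, dosed at nine 4-fold dilutions. A duplicate plate gave ATP-based viability (CC50).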
For orientation: EC50 means the midpoint of the concentration-response curve. As to `COc1ccc(-n2c(C(=O)NCc3ccc4ncccc4c3)c3n(c2=O)CCN(C(=O)c2ccc(Cl)c(Cl)c2)C3)cc1` [Example 92, 7-(3,4-dichlorobenzoyl)-2-(4-methoxyphenyl)-3-oxo-N-(6-quinolylmethyl)-6,8-dihydro-5H-imidazo[1,5-a]pyrazine-1-carboxamide], the EC50 was 0.5 to 5 µM.

Consider `COc1ccc(-n2c(C(=O)NCc3ccc4[nH]c(=O)[nH]c4c3)c3n(c2=O)CCN(C(=O)c2ccc(Cl)c(Cl)c2)C3)cc1` [Example 93, 7-(3,4-dichlorobenzoyl)-2-(4-methoxyphenyl)-3-oxo-N-[(2-oxo-1,3-dihydrobenzimidazol-5-yl)methyl]-6,8-dihydro-5H-imidazo[1,5-a]pyrazine-1-carboxamide], for which the 50% effective concentration (EC50) is more than 5 µM.

The compound `COc1cc(Cl)c(-n2c(C(=O)NCc3ccccc3)c3n(c2=O)CCN(C(=O)c2ccc(Cl)c(Cl)c2)C3)c(Cl)c1` [Example 96, N-benzyl-7-(3,4-dichlorobenzoyl)-2-(2,6-dichloro-4-methoxy-phenyl)-3-oxo-6,8-dihydro-5H-imidazo[1,5-a]pyrazine-1-carboxamide] returned an EC50 of more than 5 µM.

`COc1ccc(-n2c(C(=O)NCc3ccc(Cl)c(OC)c3)c3n(c2=O)CCN(C(=O)c2ccc(Br)c(Cl)c2)C3)cc1` [Example 101, 7-(4-bromo-3-chloro-benzoyl)-N-[(4-chloro-3-methoxy-phenyl)methyl]-2-(4-methoxyphenyl)-3-oxo-6,8-dihydro-5H-imidazo[1,5-a]pyrazine-1-carboxamide] came in with a concentration giving a half-maximal response (EC50) of 0.5 to 5 µM.

As for `COc1ccc(-n2c(C(=O)NCc3ccc(Cl)c(OC)c3)c3n(c2=O)CCN(C(=O)c2ccc(Cl)c(Cl)c2)C3)cc1` [Example 102, N-[(4-chloro-3-methoxy-phenyl)methyl]-7-(3,4-dichlorobenzoyl)-2-(4-methoxyphenyl)-3-oxo-6,8-dihydro-5H-imidazo[1,5-a]pyrazine-1-carboxamide], the EC50 was in the range of 0.5 to 5 µM.

`COc1ccc(-n2c(C(=O)NCc3ccc(F)c(OC)c3)c3n(c2=O)CCN(C(=O)c2ccc(Cl)c(Cl)c2)C3)cc1` [Example 103, 7-(3,4-dichlorobenzoyl)-N-[(4-fluoro-3-methoxy-phenyl)methyl]-2-(4-methoxyphenyl)-3-oxo-6,8-dihydro-5H-imidazo[1,5-a]pyrazine-1-carboxamide]: the EC50 lay in the range of 0.5 to 5 µM.

Compound `COc1ccc(-n2c(C(=O)NCc3ccc(C(N)=O)cc3)c3n(c2=O)CCN(C(=O)c2ccc(Cl)c(Cl)c2)C3)cc1` [Example 104, N-[(4-carbamoylphenyl)methyl]-7-(3,4-dichlorobenzoyl)-2-(4-methoxyphenyl)-3-oxo-6,8-dihydro-5H-imidazo[1,5-a]pyrazine-1-carboxamide] registered a concentration giving a half-maximal response (EC50) of more than 5 µM.

Take `COc1ccc(-n2c(C(=O)NCC3CC3)c3n(c2=O)CCN(C(=O)c2ccc(Cl)c(Cl)c2)C3)cc1` [Example 105, N-(cyclopropylmethyl)-7-(3,4-dichlorobenzoyl)-2-(4-methoxyphenyl)-3-oxo-6,8-dihydro-5H-imidazo[1,5-a]pyrazine-1-carboxamide]: the concentration giving a half-maximal response (EC50) was more than 5 µM.

Compound `COc1ccc(-n2c(C(=O)NC3(CO)CC3)c3n(c2=O)CCN(C(=O)c2ccc(Cl)c(Cl)c2)C3)cc1` [Example 106, 7-(3,4-dichlorobenzoyl)-N-[1-(hydroxymethyl)cyclopropyl]-2-(4-methoxyphenyl)-3-oxo-6,8-dihydro-5H-imidazo[1,5-a]pyrazine-1-carboxamide] displayed a half-maximal effective concentration (EC50) of more than 5 µM.

As for `COc1ccc(-n2c(C(=O)NCc3ccc4[nH]ncc4c3)c3n(c2=O)CCN(C(=O)c2ccc(Cl)c(Cl)c2)C3)cc1` [Example 107, 7-(3,4-dichlorobenzoyl)-N-(1H-indazol-5-ylmethyl)-2-(4-methoxyphenyl)-3-oxo-6,8-dihydro-5H-imidazo[1,5-a]pyrazine-1-carboxamide], the EC50 fell in the range of 0.5 to 5 µM.

As for `COc1ccc(-n2c(C(=O)NCc3ccccc3)c3n(c2=O)CCN(C(=O)c2ccc(Br)c(Cl)c2)C3)nc1` [Example 110, N-benzyl-7-(4-bromo-3-chloro-benzoyl)-2-(5-methoxy-2-pyridyl)-3-oxo-6,8-dihydro-5H-imidazo[1,5-a]pyrazine-1-carboxamide], the concentration for a half-maximal effect (EC50) was 0.5 to 5 µM.

Compound `COCC1(N(C)C(=O)c2c3n(c(=O)n2-c2ccc(OC)cc2)CCN(C(=O)c2ccc(Cl)c(Cl)c2)C3)CC1` [Example 111, 7-(3,4-dichlorobenzoyl)-N-[1-(methoxymethyl)cyclopropyl]-2-(4-methoxyphenyl)-N-methyl-3-oxo-6,8-dihydro-5H-imidazo[1,5-a]pyrazine-1-carboxamide] returned an EC50 of more than 5 µM.

Regarding `COc1ccc(-n2c(C(=O)NCc3ccccc3OC)c3n(c2=O)CCN(C(=O)c2ccc(Br)c(Cl)c2)C3)cc1` [Example 114, 7-(4-bromo-3-chloro-benzoyl)-2-(4-methoxyphenyl)-N-[(2-methoxyphenyl)methyl]-3-oxo-6,8-dihydro-5H-imidazo[1,5-a]pyrazine-1-carboxamide], the EC50 is 0.1 to 0.5 µM.

For the compound `COc1ccc(-n2c(C(=O)NCc3ccccc3OC)c3n(c2=O)CCN(C(=O)c2ccc(Cl)c(Cl)c2)C3)cc1` [Example 115, 7-(3,4-dichlorobenzoyl)-2-(4-methoxyphenyl)-N-[(2-methoxyphenyl)methyl]-3-oxo-6,8-dihydro-5H-imidazo[1,5-a]pyrazine-1-carboxamide], the EC50 lay within 0.1 to 0.5 µM.

`COc1ccc(-n2c(C(=O)NCc3ccc(F)cc3C)c3n(c2=O)CCN(C(=O)c2ccc(Br)c(Cl)c2)C3)cc1` [Example 116, 7-(4-bromo-3-chloro-benzoyl)-N-[(4-fluoro-2-methyl-phenyl)methyl]-2-(4-methoxyphenyl)-3-oxo-6,8-dihydro-5H-imidazo[1,5-a]pyrazine-1-carboxamide]: the concentration for a half-maximal effect (EC50) fell in the range of 0.1 to 0.5 µM.

`COc1ccc(-n2c(C(=O)NCc3ccccc3)c3n(c2=O)CCN(c2ncnc4cc(Cl)ccc24)C3)cc1` [Example 117, N-benzyl-7-(7-chloroquinazolin-4-yl)-2-(4-methoxyphenyl)-3-oxo-6,8-dihydro-5H-imidazo[1,5-a]pyrazine-1-carboxamide] gave a 50% effective concentration (EC50) of more than 5 µM.

As to `O=C(NCc1ccccc1)c1c2n(c(=O)n1-c1ccc3occc3c1)CCN(C(=O)c1ccc(Cl)c(Cl)c1)C2` [Example 120, 2-(benzofuran-5-yl)-N-benzyl-7-(3,4-dichlorobenzoyl)-3-oxo-6,8-dihydro-5H-imidazo[1,5-a]pyrazine-1-carboxamide], the EC50 was 0.5 to 5 µM.

Consider `O=C(NCc1ccccc1)c1c2n(c(=O)n1-c1ccc(OC(F)F)cc1)CCN(C(=O)c1ccc(Cl)c(Cl)c1)C2` [Example 121, N-benzyl-7-(3,4-dichlorobenzoyl)-2-[4-(difluoromethoxy)phenyl]-3-oxo-6,8-dihydro-5H-imidazo[1,5-a]pyrazine-1-carboxamide], for which the 50% effective concentration (EC50) lay in the range of 0.5 to 5 µM.

In turn, `Cc1ccc(-n2c(C(=O)NCc3ccccc3)c3n(c2=O)CCN(C(=O)c2ccc(Cl)c(Cl)c2)C3)cc1` [Example 122, N-benzyl-7-(3,4-dichlorobenzoyl)-3-oxo-2-(p-tolyl)-6,8-dihydro-5H-imidazo[1,5-a]pyrazine-1-carboxamide] returned a concentration for a half-maximal effect (EC50) of 0.5 to 5 µM.

For the compound `Cc1ccc(-n2c(C(=O)NCc3ccccc3)c3n(c2=O)CCN(C(=O)c2ccc(Br)c(Cl)c2)C3)cc1` [Example 123, N-benzyl-7-(4-bromo-3-chloro-benzoyl)-3-oxo-2-(p-tolyl)-6,8-dihydro-5H-imidazo[1,5-a]pyrazine-1-carboxamide], the EC50 lay in the range of 0.1 to 0.5 µM.

In turn, `COc1ccc(-n2c(C(=O)NCc3ccccc3)c3n(c2=O)CCN(C(=O)c2ccc(Cl)c(Cl)c2)C3)cc1C` [Example 124, N-benzyl-7-(3,4-dichlorobenzoyl)-2-(4-methoxy-3-methyl-phenyl)-3-oxo-6,8-dihydro-5H-imidazo[1,5-a]pyrazine-1-carboxamide] gave an EC50 of 0.5 to 5 µM.

`COc1ccc(-n2c(C(=O)NCc3cccc(F)c3)c3n(c2=O)CCN(C(=O)c2ccc(Br)c(Cl)c2)C3)cc1` [Example 125, 7-(4-bromo-3-chloro-benzoyl)-N-[(3-fluorophenyl)methyl]-2-(4-methoxyphenyl)-3-oxo-6,8-dihydro-5H-imidazo[1,5-a]pyrazine-1-carboxamide] returned a half-maximal effective concentration (EC50) of 0.1 to 0.5 µM.

The compound `COc1ccc(-n2c(C(=O)NCc3cccc(C(N)=O)c3)c3n(c2=O)CCN(C(=O)c2ccc(Cl)c(Cl)c2)C3)cc1` [Example 126, N-[(3-carbamoylphenyl)methyl]-7-(3,4-dichlorobenzoyl)-2-(4-methoxyphenyl)-3-oxo-6,8-dihydro-5H-imidazo[1,5-a]pyrazine-1-carboxamide] registered a 50% effective concentration (EC50) of more than 5 µM.

For `O=C(NCc1ccccc1)c1c2n(c(=O)n1-c1ccc(OC(F)(F)F)cc1)CCN(C(=O)c1ccc(Cl)c(Cl)c1)C2` [Example 131, N-benzyl-7-(3,4-dichlorobenzoyl)-3-oxo-2-[4-(trifluoromethoxy)phenyl]-6,8-dihydro-5H-imidazo[1,5-a]pyrazine-1-carboxamide], the concentration giving a half-maximal response (EC50) is more than 5 µM.

For `COc1ccc(CN2C/C=C\Cn3c(c4n(c3=O)CCN(C(=O)c3ccc(Br)c(Cl)c3)C4)C2=O)cc1` [Example 132, (11Z)-4-(4-bromo-3-chloro-benzoyl)-14-[(4-methoxyphenyl)methyl]-4,7,9,14-tetrazatricyclo[7.6.0.0^2,7]pentadeca-1,11-diene-8.15-dione], the EC50 was 0.1 to 0.5 µM.

Consider `O=C(c1ccc(Br)c(Cl)c1)N1CCn2c(c3n(c2=O)CCCN(CC2CC2)C3=O)C1` [Example 133, 4-(4-bromo-3-chloro-benzoyl)-13-(cyclopropylmethyl)-4,7,9,13-tetrazatricyclo[7.5.0.0^2,7]tetradec-1-ene-8.14-dione], for which the EC50 was more than 5 µM.

As to `CC(C)CN1CCCn2c(c3n(c2=O)CCN(C(=O)c2ccc(Br)c(Cl)c2)C3)C1=O` [Example 134, 4-(4-bromo-3-chloro-benzoyl)-13-isobutyl-4,7,9,13-tetrazatricyclo[7.5.0.0^2,7]tetradec-1-ene-8.14-dione], the EC50 was more than 5 µM.

In turn, `COc1ccc(CN2CCCCn3c(c4n(c3=O)CCN(C(=O)c3ccc(Br)c(Cl)c3)C4)C2=O)cc1` [Example 135, 4-(4-bromo-3-chloro-benzoyl)-14-[(4-methoxyphenyl)methyl]-4,7,9,14-tetrazatricyclo[7.6.0.0^2,7]pentadec-1-ene-8.15-dione] came in with an EC50 of 0.5 to 5 µM.
